Source: patent publication US6492350B2, “Chitin oligosaccharides and/or chitosan oligosaccharides for preventing or treating common cold or treating pain” (JDC (Hawaii) Inc., priority 2000, dated 2002)

What was measured:
[1] = Clinical study of CCOS analgesia in volunteers with painful conditions (short-form McGill Pain Questionnaire); type: in vivo, human; settings: patient
Description: This modification is a hybrid form utilizing both a Visual Analogue Scale rating pain from 0 (no pain) to 5 (excruciating) as well as a pain questionnaire rating the pain from 0 (no pain) to 3 (severe) along with the following descriptions:
To test the effectiveness of chitin chitosan oligosaccharide (CCOS) in providing satisfactory analgesia in both nociceptive and neuropathic pain, a clinical study was conducted with volunteers suffering from a variety of rather common painful conditions (see Table 11). Pain can be an extremely subjective phenomena; there is no laboratory or radiological test to measure its severity or indeed even its presence as described elsewhere p. 8). […] “There is a whole literature of validated, subjective tools that are absolutely reliable” (Melvin C. Gitlin, MD Professor of Anesthesiology, Tulane University School of Medicine and Director of the Pain Management Center at the Tulane University Hospital Clinic) The conditions of all of the volunteers in this study have been documented by physicians, in some cases more than one, and their pain substantiated. […] Our methods, utilizing human subjects is equally valid and acceptable (36). (see Modified McGill Pain form used as the basis to evaluate pain).

[2] = in vivo, po; cited from earlier work

For CC(=O)Oc1ccccc1C(=O)O [ASA], the “Degree of Pain Reduction” value ([1]; acute pharangitis, nociceptive (inflammatory), CCOS 150 mg STAT then 100 mg PRN) was “no significant improvement”.
In the case of CC(=O)Nc1ccc(O)cc1 [Tylenol, Acetaminophen], the “Degree of Pain Reduction” value ([1]; low back pain secondary to strain, nociceptive, CCOS 400 mg STAT then 300 mg QID) is reported as “little or no effect”.
For Chitin, the absorbed orally [2] is listed as 20-40%.
